From PubChem BioAssay (NCI)
Several values for one entry are separate records, joined by “and”; a condition that tells them apart may be missing. Equal entries are not always repeated.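 1) Cells in 96-well plates. 2) Compound, 48 h, 5 concentrations. 3) Linear interpolation between surrounding doses. 4) Unreached endpoint = highest concentration. GI50 = concentration required for 50% inhibition of growth. Definition used: TGI = concentration required for complete inhibition of growth.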

Tests used:
Assay in all cases: NCI-60 cell line screen, 48 h
COLO 205 colon = test system: COLO 205 colon
786-0 renal = test system: 786-0 renal
MOLT-4 leukemia = test system: MOLT-4 leukemia
HOP-92 NSCLC = test system: HOP-92 NSCLC
DU-145 prostate = test system: DU-145 prostate
OVCAR-4 ovarian = test system: OVCAR-4 ovarian
RPMI-8226 leukemia = test system: RPMI-8226 leukemia
UO-31 renal = test system: UO-31 renal
CAKI-1 renal = test system: CAKI-1 renal
MDA-MB-231 breast = test system: MDA-MB-231 breast

Row | Structure (SMILES) | GI50 (COLO 205 colon) [µM] | TGI (COLO 205 colon) | GI50 (786-0 renal) [µM] | TGI (786-0 renal) | GI50 (MOLT-4 leukemia) [µM] | TGI (MOLT-4 leukemia) | GI50 (HOP-92 NSCLC) [µM] | TGI (HOP-92 NSCLC) | GI50 (DU-145 prostate) [µM] | TGI (DU-145 prostate) [µM] | GI50 (OVCAR-4 ovarian) [µM] | TGI (OVCAR-4 ovarian) [µM] | GI50 (RPMI-8226 leukemia) [µM] | TGI (RPMI-8226 leukemia) | GI50 (UO-31 renal) [µM] | TGI (UO-31 renal) | GI50 (CAKI-1 renal) [µM] | TGI (CAKI-1 renal) | GI50 (MDA-MB-231 breast) [µM] | TGI (MDA-MB-231 breast)
1 | COc1cc(C2CC(c3ccc(N(C)C)cc3)=NN2C(C)=O)cc(OC)c1OC (stereo unspecified) | 3.06 | > 41.4 µM | 2.36 | > 78 µM | 12.8 | > 100 µM | 29.6 | > 100 µM | 2.29 | > 35 | 10.9 | > 100 | 3.77 | > 39.3 µM | 3.59 | > 100 µM | 0.801 | > 100 µM | 4.74 | > 100 µM
2 | C=C1CCC2C3(C)COC(c4ccccc4Br)OC3CCC2(C)C1C/C=C1/C(=O)OCC1OC(C)=O (stereo unspecified) | 1.66 | 3.2 µM | 1.63 | 2.98 µM | 0.821 | 2.91 µM | 1.36 | 3.02 µM | 1.58 | 2.99 | 1.43 | 2.83 | 0.645 | 6.52 µM | 1.34 | 2.72 µM | 2.4 | 6.46 µM | 1.47 | 3.16 µM
3 | CN(C(=O)c1ccncc1)c1ccccc1 | – | > 100 µM | – | > 100 µM | – | > 100 µM | – | > 100 µM | – | > 100 | – | > 100 | – | > 100 µM | – | > 100 µM | – | > 100 µM | – | > 100 µM
4 | COC(=O)C(F)C(Br)C(=O)OC (stereo unspecified) | – | 3.46 µM | – | 6.03 µM | – | 3.01 µM | – | 4.96 µM | – | 27.5 | – | 19.8 | – | 3.88 µM | – | 3.52 µM | – | 5.17 µM | – | 28.3 µM
5 | Nc1nc(N)c(N=O)c(OCC2CCCCC2)n1 | 15.1 | 37.4 µM and 33.8 µM | 20.9 | > 100 µM and 84.1 µM | 7.65 | > 100 µM and 51 µM | 2.25 | 8.41 µM and 59.2 µM | 5.93 | > 100 | 6.03 | > 75.5 | 9.17 | 98.7 µM and 36.1 µM | 3.24 | 39.1 µM and 39.7 µM | 3.99 | 34 µM and 78.9 µM | 8.07 | 77.9 µM and > 31.4 µM
6 | CCCCNC(=O)NS(=O)(=O)c1ccc(N2N=C(c3cc(C)ccc3C)CC2c2cc(OC)c(OC)c(OC)c2)cc1 (stereo unspecified) | 2.6 | 5.19 µM | 3.51 | 16.1 µM | 2.74 | 8.89 µM | 1.27 | 4.63 µM | 3.46 | 11.1 | 2.52 | 14.5 | 1.95 | 5.49 µM | 3.07 | 12.3 µM | 3.07 | 12.7 µM | 2.36 | 6.39 µM
7 | COc1ccc(/C=C2\CCC(CN(C)C)C2=O)cc1OC (stereo unspecified) | – | 10.6 µM | – | 6.42 µM | – | 7.35 µM | – | 21 µM | – | 20.4 | – | 18.4 | – | 5.95 µM | – | 24.6 µM | – | 10 µM | – | 7.71 µM
8 | CC(C)c1ccc(Nc2nccc(-c3cnn4ncccc34)n2)cc1 | 0.306 | 0.704 µM | 0.801 | 4.88 µM | 0.888 | 4.19 µM | 0.503 | 1.59 µM | 0.809 | > 9.19 | 0.604 | 2.63 | 0.466 | 2.56 µM | 0.804 | > 9.35 µM | 0.8 | > 15.4 µM | 0.726 | > 17.9 µM
9 | Nc1ccc(-c2ccc(N)cc2I)c(I)c1 | 17 | 38.1 µM | 17.3 | 36.9 µM | 9.89 | 43.6 µM | 11.2 | 37 µM | 21.8 | 59.9 | 17.5 | > 100 | 14 | 37.7 µM | 10.6 | 26 µM | 14.5 | 42.9 µM | 16.6 | 46.4 µM
10 | N=C(N)c1ccc(COc2ccccc2OCc2ccc(C(=N)N)cc2)cc1 | > 100 | > 100 µM | 29.8 | > 100 µM | 49.6 | > 100 µM | 11.4 | 86.2 µM | 18.7 | 45.8 | 92 | > 100 | 16.6 | 99.3 µM | > 100 | > 100 µM | 2.11 | 29.8 µM | 32.9 | > 100 µM
11 | CSc1ccccc1C#Cc1ccccc1C#CCCCCO | 15.8 | 31.5 µM | 11 | 26.6 µM | 7.32 | 29.3 µM | 9.76 | 25.1 µM | 4.73 | 18 | 17.7 | 37.3 | 6.79 | 46.6 µM | 12.6 | 25.4 µM | 7.13 | 20.5 µM | 2.57 | 13.2 µM
12 | Nc1n[nH]c2cccc(C#Cc3cccc(C(=O)Nc4cc(CN5CCOCC5)cc(C(F)(F)F)c4)c3)c12 | 2.7 | 11.1 µM | 3.97 | 15 µM | 2.76 | 13.3 µM | 2.78 | 9.61 µM | 9.82 | 23.8 | 5.8 | 23.1 | 3.19 | 27.3 µM | 2.03 | 11.1 µM | 5.11 | 19.4 µM | 1.65 | 6.8 µM
13 | O=C(c1cccnc1)c1cc(-c2ccccn2)c(=O)n2ccccc12 | > 100 | > 100 µM | > 100 | > 100 µM | > 100 | > 100 µM | > 100 | > 100 µM | > 100 | > 100 | > 100 | > 100 | > 100 | > 100 µM | > 100 | > 100 µM | > 100 | > 100 µM | > 100 | > 100 µM
14 | CCOC(=O)c1nc(Nc2ccc(Cl)cc2)c2ccccc2n1 | 9.8 | 20.6 µM | 10.4 | 21.4 µM | – | – | 9.49 | 26.8 µM | 7.39 | 15.1 | 11.3 | 47.9 | 11.8 | 30.2 µM | 8.87 | 18.8 µM | 7.73 | 16.3 µM | 14.1 | 42 µM
15 | O=C(N/N=C/c1cc([N+](=O)[O-])ccc1O)c1cccc2ccccc12 | 3.41 | 16.3 µM | 3.29 | 27.7 µM | 2.41 | 21.7 µM | 1.26 | 13 µM | 6.2 | > 100 | 1.2 | 26.2 | 3.35 | 62.2 µM | 1.8 | 19.5 µM | 1.31 | 4.67 µM | 7.6 | > 100 µM
16 | O=C(OCCBr)c1ccc(Cl)c([N+](=O)[O-])c1 | 16.8 | 31.5 µM | 18.6 | 34.1 µM | 23.7 | 55.3 µM | 16 | 33.2 µM | 2.31 | 5.27 | 10.2 | 23 | 7.09 | 19 µM | 2.72 | 7.85 µM | 7.78 | 23.1 µM | 8.3 | 21.6 µM
17 | CCNCCNc1cc(C2CCCCC2)c(C#N)c2nc3ccccc3n12 | 1.58 | 3.41 µM | 1.57 | 3.04 µM | 2.04 | 4.97 µM | 2.28 | 4.08 µM | 2.37 | 5.79 | 2.1 | 6.42 | 2.11 | 5.02 µM | 1.66 | 3.36 µM | 1.82 | 3.91 µM | 1.95 | 3.62 µM
18 | CCCc1cc(=O)n2c(C(=O)Nc3ccccc3OC)c(C(=O)Nc3ccc(F)cc3)sc2n1 | 38.2 | > 160 µM | 2.91 | 10.2 µM | 19.8 | 57.3 µM | 1.43 | 4.73 µM | 13.3 | 34.6 | 5.03 | 15.3 | 3.15 | 32.8 µM | 23.4 | 81.8 µM | 35.3 | > 160 µM | 3.29 | 11.2 µM
19 | c1ccc(CSc2nnc3c4ccccc4c4ccccc4c3n2)cc1 | – | > 100 µM | – | > 92.5 µM | – | > 100 µM | – | 59.7 µM | – | > 100 | – | > 96.3 | – | > 100 µM | – | > 100 µM | – | > 100 µM | – | > 100 µM
20 | COc1cc(C(=O)/C=C/c2cccnc2Nc2ccccc2)cc(OC)c1OC | 1.29 | 2.62 µM | 1.29 | 2.65 µM | 2.68 | 19.5 µM | 0.392 | 2.07 µM | 0.723 | 1.94 | 1.45 | 2.76 | 0.349 | 2.05 µM | 1.19 | 2.57 µM | – | – | 1.4 | 3.09 µM
